Where “and” joins values, the source holds several entries; their conditions need not be identical. Equal values may be shown once. Non-standard residues stand in square brackets, D forms with d. Residues, ends and D or L forms follow the SMILES beside them. Gly(N-4-hydroxybenzyl) = O=C(O)CNCc1ccc(O)cc1

The text below walks through data of ChEMBL document CHEMBL1141524 (Bioorg Med Chem Lett, 2008).

The experiment is described as follows: Displacement of [3H]neurotensin from pig NTR1. The arrangement: species or system Sus scrofa. (In general: In a radioligand displacement assay an active substance lowers the binding of a labelled ligand.)
The Ki is the equilibrium dissociation constant of an inhibitor or competing ligand from its target. A higher Ki goes with a looser hold on the target. The compound `CC[C@H](C)[C@H](NC(=O)[C@H](Cc1ccc(O)cc1)N1CC=C[C@]2(CCCN2C(=O)[C@H](CCCNC(=N)N)NC(=O)[C@@H](N)CCCNC(=N)N)C1=O)C(=O)N[C@@H](CC(C)C)C(=O)O` displayed a Ki of 7400 nM.

The compound `CC[C@H](C)[C@H](NC(=O)[C@H](Cc1ccc(O)cc1)NC(=O)[C@@H]1CCCN1C(=O)[C@H](CCCCN)NC(=O)CNCCCCN)C(=O)N[C@@H](CC(C)C)C(=O)O` registered a Ki of 0.45 nM.

For `CC[C@H](C)[C@H](NC(=O)[C@H](Cc1ccc(O)cc1)NC(=O)[C@@H]1CCCN1C(=O)[C@H](CCCCN)NC(=O)[C@@H](N)CCCCN)C(=O)N[C@@H](CC(C)C)C(=O)O`, the Ki was 2.6 nM.

As for `CC[C@H](C)[C@H](NC(=O)[C@H](Cc1ccc(O)cc1)NC(=O)C[C@@H]1CCCN1C(=O)[C@H](CCCNC(=N)N)NC(=O)[C@@H](N)CCCNC(=N)N)C(=O)N[C@@H](CC(C)C)C(=O)O`, the Ki is 28 nM.

Regarding `CC[C@H](C)[C@H](NC(=O)[C@H](Cc1ccc(O)cc1)NC(=O)[C@@H]1CCCN1C(=O)[C@H](CCCNC(=N)N)NC(=O)[C@@H](N)CCCNC(=N)N)C(=O)N[C@@H](CC(C)C)C(N)=O`, the Ki was 0.18 nM.

Consider `CC[C@H](C)[C@H](NC(=O)[C@H](Cc1ccc(O)cc1)NC(=O)[C@@H]1CCCN1C(=O)[C@H](CCCNC(=N)N)NC(=O)CCC(=O)O)C(=O)N[C@@H](CC(C)C)C(=O)O`, for which the Ki worked out at 2300 nM.

In turn, `CC[C@@H](C)[C@H](NC(=O)[C@H](Cc1ccc(O)cc1)N1CC=CC[C@]2(CCCN2C(=O)[C@H](CCCNC(=N)N)NC(=O)[C@@H](N)CCCNC(=N)N)C1=O)C(=O)N[C@@H](CC(C)C)C(=O)O` had a Ki of 18000 nM.

With `CC[C@H](C)[C@H](NC(=O)[C@H](Cc1ccc(O)cc1)N1CC/C=C\C[C@H]2CCN(C(=O)[C@H](CCCNC(=N)N)NC(=O)[C@@H](N)CCCNC(=N)N)[C@@H]2C1=O)C(=O)N[C@@H](CC(C)C)C(=O)O`, the Ki is 2400 nM and 8600 nM.

`CC[C@H](C)[C@H](NC(=O)[C@H](Cc1ccc(O)cc1)NC(=O)[C@@H]1CCCN1C(=O)CN(CCCCN)C(=O)[C@@H](N)CCCCN)C(=O)N[C@@H](CC(C)C)C(=O)O` showed a Ki of 5.7 nM.

`CC[C@H](C)[C@H](NC(=O)[C@H](Cc1ccc(O)cc1)N1C(=O)NC(=O)C2(CCCN2C(=O)[C@H](CCCNC(=N)N)NC(=O)[C@@H](N)CCCNC(=N)N)C1=O)C(=O)N[C@@H](CC(C)C)C(=O)O` (some centres not stated) returned a Ki of 10000 nM.

For the compound `CC[C@H](C)[C@H](NC(=O)[C@H](Cc1ccc(O)cc1)NC(=O)[C@@H]1CCCN1C(=O)[C@H](CCCNC(=N)N)NC(=O)C[N+](C)(C)C)C(=O)N[C@@H](CC(C)C)C(=O)O`, the Ki is 0.65 nM.

As for `CC[C@H](C)[C@H](NC(=O)CN(Cc1ccc(O)cc1)C(=O)[C@@H]1CCCN1C(=O)[C@H](CCCCN)NC(=O)[C@@H](N)CCCCN)C(=O)N[C@@H](CC(C)C)C(=O)O` (H-KKP[Gly(N-4-hydroxybenzyl)]IL-OH), the Ki worked out at 11000 nM.

For the compound `CC[C@H](C)[C@H](NC(=O)[C@H](Cc1ccc(O)cc1)N1C(=O)NC(=O)C2(CCCN2C(=O)[C@H](CCCNC(=N)N)NC(=O)[C@@H](N)CCCNC(=N)N)C1=O)C(=O)N[C@@H](CC(C)C)C(=O)O` (single isomer, unassigned; diastereomer 1), the affinity corresponds to a Ki of 1400 nM.

For H-DRPYIL-OH, the Ki was found to be 150 nM.

On to H-RRAPYIL-OH, for which the affinity corresponds to a Ki of 9.6 nM.

Compound H-RRPYAIL-OH had an inhibition constant Ki of 6.8 nM.

Compound H-RRPYILA-OH came in with a Ki of 0.27 nM.
